In patent publication US9006253B2, “Crystal of 2-(3,4-dichlorobenzyl)-5-methyl-4-oxo-3,4-dihydrothieno[2,3-D]pyrimidine-6-carboxylic acid” (ASKA Pharmaceutical Co., Ltd., priority 2010, dated 2015):
Converted amounts (≈) assume the structure as drawn. Like-named read-outs stand apart in the source and are kept apart here.

Tests used:
[1] = Dissolution rate (disc, Paddle Method); type: physicochemical; conditions: 100 mg disc (diameter 12 mm), 0.5% aqueous Tween80 solution 900 mL, 37° C., Paddle Method 50 rpm
Procedure: Form I crystal obtained in Example 1, Form II crystal obtained in Example 2 and amorphous compound A obtained in Production Example 1 (each 100 mg) were compression molded by a tableting machine for IR measurement having a metal mold pre-treated with magnesium stearate, and formed into discs (diameter 12 mm). Each disc was added to 0.5% aqueous Tween80 solution (900 mL, 37° C.), the concentration was measured every 10 minutes up to 1 hr, and every 1 hour after 1 hr up to 3 hr, by HPLC under the same conditions as in Experimental Example 1 (isocratic method using acetonitrile/5 mmol/L ammonium hydrogen carbonate (pH 8.0) (27:73) for mobile phase) while maintaining the temperature at 37° C. according to the dissolution test apparatus Paddle Method (50 rpm), and each dissolution rate was calculated. The results are shown in Table 11 below together with the results of the above-mentioned Experimental Example 2.

[2] = Thermal stability (decomposition product by HPLC, colour after heating); type: physicochemical; conditions: 6 hr; for amount of the decomposition product (decarboxylation substance of compound A): HPLC
Procedure: Form I crystal obtained in Example 1 and Form II crystal obtained in Example 2 and amorphous compound A obtained in Production Example 1 were heated at 100° C. for 6 hr or 200° C. for 6 hr, and the amount of the decomposition product 2-(3,4-dichlorobenzyl)-5-methyl-4-oxo-3,4-dihydrothieno[2,3-d]pyrimidine (decarboxylation substance of compound A) was measured by HPLC. In the HPLC measurement, the sample was suspended in a mobile phase, dissolved by adding 1 equivalent of aqueous sodium hydroxide and then applied.
HPLC Measurement Condition measuring apparatus: Waters Alliance HPLC system detector: ultraviolet absorption spectrophotometer (measurement wavelength 225 nm) column: XBridge C18 (Waters) column temperature: constant temperature near 30° C. mobile phase A: acetonitrile mobile phase B: 5 mmol/L ammonium hydrogen carbonate (pH 8.0) gradient method of mobile phase A and mobile phase B: mobile phase A 23% (0 to 15 min), mobile phase A 23%→55% (15 to 30 min), mobile phase A 55% (30 to 50 min)

Dog absorption test = type: in vivo; conditions: 0.3 mg/kg oral administration, average
Procedure: Form I crystal, Form II crystal and amorphous form of compound A were subjected to a dog absorption test under the following conditions.
sample: except for amorphous form, samples of Form I crystal and Form II crystal sieved to have a particle size of 20 to 63 μm by wet classification (two kinds of sieves and flowing water were used) were used.
Preparation method: 25 mL of water was added to a sample (3 g), and the mixture was gently pulverized in a mortar, classified under pressurization, and draught-dried. As amorphous form, a sample pulverized in agate mortar was used.
method: 9 dogs, 3×3 crossover, 0.3 mg/kg oral administration

Photostability test = type: physicochemical; conditions: xenon lamp 18 million Lxs, exposed to light for 8 hr
Procedure: Form I crystal, Form II crystal and amorphous form of compound A were subjected to a photostability test under the following conditions. The results are shown in FIG. 17. light source: xenon lamp 18 million Lxs
conditions: sample (6 mg) was weighed in a transparent sample bottle, and exposed to light for 8 hr.
HPLC conditions: same as in Experimental Example 1

[3] = Solubility in 0.5% aqueous Tween80 solution at 37° C.; type: physicochemical; conditions: for time at which near saturation was reached: stirring; for solubility: value of 3 hr
Procedure: Form I crystal obtained in Example 1, Form II crystal obtained in Example 2 and amorphous compound A obtained in Production Example 1 (each 50 mg) were suspended in 0.5% aqueous Tween80 solution (20 mL), sonicated, aqueous 0.5% Tween80 solution (180 mL) was added and the mixture was stirred at 37° C.
The solubility was measured by HPLC under the same conditions (isocratic method using acetonitrile/5 mmol/L ammonium hydrogen carbonate (pH 8.0) (27:73) for mobile phase) as in Experimental Example 1 at the time points of 0.5 hr, 1 hr, 2 hr, 3 hr, 4 hr, 5 hr, and 6 hr from the start of stirring. As a result, amorphous compound A reached near saturation at about 0.5 hr, Form I crystal reached near saturation at about 1 hr and Form II crystal reached near saturation at about 2 hr. Therefore, the value of 3 hr was taken as the solubility. The results are shown in Table 11 below together with the results of the following Experimental Example 3.

PDE5 = PDE5 (Homo sapiens, UniProt O76074); conditions: as described in WO 2006/135080; cited from earlier work
PDE9 = PDE9 (Homo sapiens, UniProt O76083); conditions: as described in WO 2006/135080; cited from earlier work
Chain of PDE9 (O76083 whole entry): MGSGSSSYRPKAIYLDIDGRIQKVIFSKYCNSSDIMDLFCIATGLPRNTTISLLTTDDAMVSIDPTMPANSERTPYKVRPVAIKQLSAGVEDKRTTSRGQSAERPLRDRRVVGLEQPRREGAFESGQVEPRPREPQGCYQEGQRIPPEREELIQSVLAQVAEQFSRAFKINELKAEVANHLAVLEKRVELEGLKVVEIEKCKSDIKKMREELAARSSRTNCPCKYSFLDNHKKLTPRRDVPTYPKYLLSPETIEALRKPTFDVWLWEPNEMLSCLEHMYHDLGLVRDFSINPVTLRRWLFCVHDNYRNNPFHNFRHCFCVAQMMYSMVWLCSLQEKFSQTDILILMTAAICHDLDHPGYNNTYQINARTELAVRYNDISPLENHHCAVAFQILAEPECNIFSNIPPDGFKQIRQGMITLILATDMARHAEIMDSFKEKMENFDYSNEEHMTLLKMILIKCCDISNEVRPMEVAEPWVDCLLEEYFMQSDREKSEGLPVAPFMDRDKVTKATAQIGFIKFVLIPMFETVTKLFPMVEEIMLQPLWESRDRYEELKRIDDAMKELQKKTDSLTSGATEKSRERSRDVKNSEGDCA

dissolution rate [1] | color of sample ([2]; heated at 100° C.) | amount of the decomposition product (decarboxylation substance of compound A) ([2]; heated at 100° C.) | color of sample ([2]; heated at 200° C.) | amount of the decomposition product (decarboxylation substance of compound A) ([2]; heated at 200° C.) | AUC0-t (Dog absorption test) | AUCinf (Dog absorption test) | Cmax (Dog absorption test) | MRT (Dog absorption test) | T1/2 (Dog absorption test) | Tmax (Dog absorption test) | photostability (Photostability test) | time at which near saturation was reached [3] | solubility [3] | Compound | also measured
0.0011 µg/mL/min | white | 0% | slight brown | 0.07%, | 24.2 ng·h/mL | 24.2 ng·h/mL | 3.7 ng/mL | 6.89 h | 3.32 h | 3.44 h | comparatively stable | about 2 hr | 10 µg/mL (≈ 27.1 µM) | Cc1c(C(=O)O)sc2nc(Cc3ccc(Cl)c(Cl)c3)[nH]c(=O)c12 [Form II crystal, 2-(3,4-dichlorobenzyl)-5-methyl-4-oxo-3,4-dihydrothieno[2,3-d]pyrimidine-6-carboxylic acid] | –
0.0052 µg/mL/min | slight brown | 0.006%, | pale-brown | 3.42%, | 62.9 ng·h/mL | 63.4 ng·h/mL | 10.3 ng/mL | 6.31 h | 3.05 h | 3.78 h | – | – | 37 µg/mL (≈ 100 µM) | Cc1c(C(=O)O)sc2nc(Cc3ccc(Cl)c(Cl)c3)[nH]c(=O)c12 [Amorphous form, 2-(3,4-dichlorobenzyl)-5-methyl-4-oxo-3,4-dihydrothieno[2,3-d]pyrimidine-6-carboxylic acid] | impurity after light exposure (Photostability test; HPLC): exceeding 0.2%; time at which near saturation was reached ([3]; listed as amorphous compound A): about 0.5 hr
– | – | – | – | – | – | – | – | – | – | – | – | – | – | Cc1c(C(=O)O)sc2nc(Cc3ccc(Cl)c(Cl)c3)[nH]c(=O)c12 [Compound A, 2-(3,4-dichlorobenzyl)-5-methyl-4-oxo-3,4-dihydrothieno[2,3-d]pyrimidine-6-carboxylic acid] | PDE5 inhibitory action (PDE5): mild PDE5 inhibitory action; PDE9 inhibitory action (PDE9): high PDE9 inhibitory action
0.0017 µg/mL/min | white | 0% | slight brown | 0.05%, | 64.6 ng·h/mL | 65.6 ng·h/mL | 9.1 ng/mL | – | – | – | comparatively stable | about 1 hr | 15 µg/mL (≈ 40.6 µM) | Cc1c(C(=O)O)sc2nc(Cc3ccc(Cl)c(Cl)c3)[nH]c(=O)c12 [Form I crystal, 2-(3,4-dichlorobenzyl)-5-methyl-4-oxo-3,4-dihydrothieno[2,3-d]pyrimidine-6-carboxylic acid] | half-life (Dog absorption test; in vivo, po, 0.3 mg/kg): 3.5 h; MRT (Dog absorption test; in vivo, po, 0.3 mg/kg, read-out: MRT): 6.73 h; Tmax (Dog absorption test; in vivo, po, 0.3 mg/kg, read-out: Tmax): 3.06 h
